According to patent US9365522B2, “Pyrazole amide derivative” (AMGEN INC., priority 2015, dated 2016):

target: T1, human RORγ-LBD (Homo sapiens, UniProt P51449); assay: ROR gamma coactivator peptide recruitment Alphascreen assay (RORγ-LBD binding to GRIP1 coactivator peptide); format: biochemical; details: 5 nM human RORγ-LBD, 30 nM 7-β-hydroxycholesterol, 50 nM biotinylated GRIP1 coactivator peptide, overnight incubation at room temperature; read-out: result (pIC50, RORγ coactivator peptide recruitment Alphascreen assay) (converted)
T1 construct: made in house; host or cells: E. coli (BL-21)
T1 sequence (P51449 262-518): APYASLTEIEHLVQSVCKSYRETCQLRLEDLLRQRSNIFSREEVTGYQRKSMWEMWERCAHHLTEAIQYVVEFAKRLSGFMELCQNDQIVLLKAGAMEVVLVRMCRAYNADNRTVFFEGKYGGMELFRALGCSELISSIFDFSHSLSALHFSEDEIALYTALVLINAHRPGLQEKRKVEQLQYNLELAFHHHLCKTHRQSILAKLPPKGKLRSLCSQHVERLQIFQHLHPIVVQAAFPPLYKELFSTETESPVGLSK
Excerpt: Alphascreen™ is a bead-based amplified homogenous luminescent proximity assay that can be used for measuring the effect of compounds on protein-protein interactions. When biological interactions bring donor and acceptor beads into close proximity, reactive oxygen, generated upon laser excitation of the donor beads, initiates a luminescence/fluorescence cascade in the acceptor beads that leads to a highly amplified signal that can be measured as light in the 520-620 nm range. When the acceptor and donor beads are not in proximity, the reactive oxygen decays and only a very low background signal is generated.
An in vitro assay to assess inhibition of RORγ binding to the coactivator GRIP1 was established using Alphascreen™ technology. The interaction between nuclear receptors (NR) and coactivator proteins is a key step in signal transduction from the receptor to the transcriptional machinery and can be measured in vitro using only the ligand binding domain of the nuclear receptor and a peptide containing a coactivator protein LXXLL nuclear receptor binding motif
For the RORγ construct used in the coactivator recruitment assay, nucleotides corresponding to the ligand binding domain (LBD) of wild type human RORγ (amino acids 262-518 of Genbank Accession No. NM_005060.3) were cloned into the pET24 expression vector (Novagen), downstream of in-frame N-terminal 6×His and Flag tag sequences. Recombinant 6×His:Flag-tagged human RORγ-LBD protein was expressed in E. coli (BL-21) and purified by affinity chromatography on a nickel Sepharose column, followed by anion exchange chromatography.
A 4× assay mixture of 6×His:Flag-tagged human RORγ-LBD with the agonist ligand 7-β-hydroxycholesterol was prepared in assay buffer (50 mM HEPES pH 7.4, BSA 0.05%, 150 mM NaCl, 5 mM MgCl2, 1 mM DTT, 0.01% Tween-20). For control wells a 4× mixture of 6×His:Flag-tagged human ROR gamma LBD alone was also prepared.
A 4× stock of biotinylated coactivator peptide containing the LXXLL motif from GRIP1 (Biotin-[…]) was prepared in assay buffer.
A 4×detection mixture of nickel chelate Alphascreen™ acceptor beads (PerkinElmer) and streptavidin Alphascreen™ donor beads (PerkinElmer) was prepared in assay buffer.
Compounds to be tested were arranged in a pre-dose 384-well mother plate serially diluted 1 in 2 over 22 columns, in 100% DMSO, at 40× the final test concentration, from a high concentration of 4 mM. DMSO with no compound was placed in control columns. The compounds were robotically dispensed directly into assay plates containing assay buffer to a 4× final test concentration.
Following compound addition, the 6×His:Flag-tagged human RORγ-LBD plus 7-β-hydroxycholesterol assay mixture, biotinylated coactivator peptide and detection mixture were added. Final assay conditions were 5 nM 6×His:Flag-tagged human RORγ-LBD, 30 nM 7-β-hydroxycholesterol, 50 nM biotinylated coactivator peptide, 2.5 ug/ml nickel acceptor beads and 10 ug/ml streptavidin donor beads. The final concentration of DMSO in the assay was 2.5%.
After overnight incubation at room temperature plates were read on and Envision™ plate reader (PerkinElmer).
Data was plotted and pIC50 values were calculated using the Genedata Screener™ data analysis suite (Genedata).

Row | Structure (SMILES) | IC50
1 | O=C(CN(CC1CC2(CC2)C1)C(=O)c1cnn([C@H]2CC[C@H](C(=O)O)CC2)c1C(F)(F)F)c1c(Cl)cccc1Cl [Example 567, trans-4-(4-((2-(2,6-dichlorophenyl)-2-oxoethyl)(spiro[2.3]hex-5-ylmethyl)carbamoyl)-5-(trifluoromethyl)-1H-pyrazol-1-yl)cyclohexanecarboxylic acid] | 2.4 nM
2 | C[C@]12CC[C@](CN(CC(=O)c3c(Cl)cccc3Cl)C(=O)c3cnn([C@H]4CC[C@](C)(C(=O)O)CC4)c3C(F)(F)F)(CC1)C2 [Example 612, trans-4-(4-((2-(2,6-dichlorophenyl)-2-oxoethyl)(((1r,4r)-4-methylbicyclo[2.2.1]hept-1-yl)methyl)carbamoyl)-5-(trifluoromethyl)-1H-pyrazol-1-yl)-1-methylcyclohexanecarboxylic acid] | 39.8 nM
3 | Cc1cc(Cl)c(C(=O)CN(Cc2cc(F)cc(F)c2)C(=O)c2cnn([C@H]3CC[C@@H](C(=O)O)CC3)c2C(F)(F)F)c(Cl)n1 [Example 761, cis-4-(4-((2-(2,4-dichloro-6-methyl-3-pyridinyl)-2-oxoethyl)(3,5-difluorobenzyl)carbamoyl)-5-(trifluoromethyl)-1H-pyrazol-1-yl)cyclohexanecarboxylic acid] | 7.94 nM
4 | Cc1cc(Cl)c(C(=O)CN(CC2(C)CCCCC2)C(=O)c2cnn([C@H]3CC[C@](C)(C(=O)O)CC3)c2C(F)(F)F)c(Cl)c1 [Example 571, trans-4-(4-((2-(2,6-dichloro-4-methylphenyl)-2-oxoethyl)((1-methylcyclohexyl)methyl)carbamoyl)-5-(trifluoromethyl)-1H-pyrazol-1-yl)-1-methylcyclohexanecarboxylic acid] | 1.26 nM
5 | COc1ncc(Cl)c(C(=O)CN(CC(C)(C)C)C(=O)c2cnn([C@H]3CC[C@](C)(C(=O)O)CC3)c2C(F)(F)F)c1Cl [Example 753, trans-4-(4-((2-(3,5-dichloro-2-methoxy-4-pyridinyl)-2-oxoethyl)(2,2-dimethylpropyl)carbamoyl)-5-(trifluoromethyl)-1H-pyrazol-1-yl)-1-methylcyclohexanecarboxylic acid] | 25.1 nM
6 | CC1(C)CC(CN(CC(=O)c2c(Cl)cccc2Cl)C(=O)c2cnn([C@H]3C[C@H](CC(=O)O)C3)c2C(F)(F)F)C1 [Example 668, (trans-3-(4-((2-(2,6-dichlorophenyl)-2-oxoethyl)((3,3-dimethylcyclobutyl)methyl)carbamoyl) 5-(trifluoromethyl)-1H-pyrazol-1-yl)cyclobutyl)acetic acid] | 3.47 nM
7 | C[C@@H]1C[C@@H](n2ncc(C(=O)N(CC(=O)c3c(Cl)ccc(F)c3Cl)[C@H]3C[C@@H]4[C@H](C3)C4(C)C)c2C(F)(F)F)CC[C@@H]1C(=O)O [Example 845, (1S,2R,4S)-4-(4-((2-(2,6-dichloro-3-fluorophenyl)-2-oxoethyl)((1R,3r,5S)-6,6-dimethylbicyclo[3.1.0]hexan-3-yl)carbamoyl)-5-(trifluoromethyl)-1H-pyrazol-1-yl)-2-methylcyclohexanecarboxylic acid] | 1.45 nM
8 | O=C(CN(C(=O)c1cnn([C@H]2CC[C@@H](C(=O)O)CC2)c1C(F)(F)F)[C@H]1CC12CCCC2)c1c(Cl)cccc1Cl [Example 624, cis-4-(4-((2-(2,6-dichlorophenyl)-2-oxoethyl)((1S)-spiro[2.4]hept-1-yl)carbamoyl)-5-(trifluoromethyl)-1H-pyrazol-1-yl)cyclohexanecarboxylic acid] | 102 nM
9 | C[C@H]1C[C@@](C)(C(=O)O)CC[C@H]1n1ncc(C(=O)N(CC(=O)c2c(Cl)cncc2Cl)CC(C)(C)C)c1C(F)(F)F [Example 856, (1S,3S,4R)-4-(4-((2-(3,5-dichloro-4-pyridinyl)-2-oxoethyl)(2,2-dimethylpropyl)carbamoyl)-5-(trifluoromethyl)-1H-pyrazol-1-yl)-1,3-dimethylcyclohexanecarboxylic acid] | 67.6 nM

Now from value to compound:

Row | IC50 | Structure (SMILES)
10 | 18.6 nM | C[C@@H]1C[C@@H](n2ncc(C(=O)N(CC(=O)c3c(Cl)cncc3Cl)C[C@H]3CCC(C)(C)O3)c2C(F)(F)F)CC[C@@H]1C(=O)O [Example 826, (1S,2R,4S)-4-(4-((2-(3,5-dichloro-4-pyridinyl)-2-oxoethyl)(((2R)-5,5-dimethyltetrahydro-2-furanyl)methyl)carbamoyl)-5-(trifluoromethyl)-1H-pyrazol-1-yl)-2-methylcyclohexanecarboxylic acid]
11 | 4.17 nM | Cc1cc(Cl)c(C(=O)CN(C(=O)c2cnn([C@H]3CC[C@](C)(C(=O)O)CC3)c2C(F)(F)F)[C@H]2C[C@@H](C(C)(C)C)C2)c(Cl)c1 [Example 689, trans-4-(4-((2-(2,6-dichloro-4-methylphenyl)-2-oxoethyl)(cis-3-(2-methyl-2-propanyl)cyclobutyl)carbamoyl)-5-(trifluoromethyl)-1H-pyrazol-1-yl)-1-methylcyclohexanecarboxylic acid]
12 | 0.891 nM | Cc1cc(Cl)c(C(=O)CN(CC2(C)CCCC2)C(=O)c2cnn([C@H]3CC[C@](C)(C(=O)O)CC3)c2C(F)(F)F)c(Cl)c1 [Example 709, trans-4-(4-((2-(2,6-dichloro-4-methylphenyl)-2-oxoethyl)((1-methylcyclopentyl)methyl)carbamoyl)-5-(trifluoromethyl)-1H-pyrazol-1-yl)-1-methylcyclohexanecarboxylic acid]
13 | 4.79 nM | CC(C)CCN(CC(=O)c1c(Cl)cccc1Cl)C(=O)c1cnn([C@H]2CC[C@](C)(C(=O)O)CC2)c1C(F)(F)F [Example 752, trans-4-(4-((2-(2,6-dichlorophenyl)-2-oxoethyl)(3-methylbutyl)carbamoyl)-5-(trifluoromethyl)-1H-pyrazol-1-yl)-1-methylcyclohexanecarboxylic acid]
14 | 3.72 nM | CC1(CN(CC(=O)c2c(Cl)cccc2Cl)C(=O)c2cnn([C@H]3CC[C@](C)(C(=O)O)CC3)c2C(F)(F)F)CC1 [Example 759, trans-4-(4-((2-(2,6-dichlorophenyl)-2-oxoethyl)((1-methylcyclopropyl)methyl)carbamoyl)-5-(trifluoromethyl)-1H-pyrazol-1-yl)-1-methylcyclohexanecarboxylic acid]
15 | 32.4 nM | CC(C)[C@@H]1C[C@H](Cc2c(Cl)cncc2Cl)N(C(=O)c2cnn([C@H]3CC[C@](C)(C(=O)O)CC3)c2C(F)(F)F)C1 [Example 746, trans-4-(4-(((2R,4S)-2-((3,5-dichloro-4-pyridinyl)methyl)-4-(2-propanyl)-1-pyrrolidinyl)carbonyl)-5-(trifluoromethyl)-1H-pyrazol-1-yl)-1-methylcyclohexanecarboxylic acid]
16 | 11.5 nM | CC(C)(C)CN(CC(=O)c1c(Cl)cncc1Cl)C(=O)c1cnn([C@H]2CC[C@]3(CC2)C[C@@H]3C(=O)O)c1C(F)(F)F [Example 860, (1R,3r,6R)-6-(4-((2-(3,5-dichloro-4-pyridinyl)-2-oxoethyl)(2,2-dimethylpropyl)carbamoyl)-5-(trifluoromethyl)-1H-pyrazol-1-yl)spiro[2.5]octane-1-carboxylic acid]
17 | 100 nM | CC1(C)CC[C@@H]1N(CC(=O)c1c(Cl)cncc1Cl)C(=O)c1cnn([C@H]2CC[C@](C)(C(=O)O)CC2)c1C(F)(F)F [Example 578, trans-4-(4-((2-(3,5-dichloro-4-pyridinyl)-2-oxoethyl)((1S)-2,2-dimethylcyclobutyl)carbamoyl)-5-(trifluoromethyl)-1H-pyrazol-1-yl)-1-methylcyclohexanecarboxylic acid]
